Data as given in US20200078404A1, “COMBINATION OF A CELL THERAPY AND AN IMMUNOMODULATORY COMPOUND” (Juno Therapeutics, Inc., priority 2017, published 2020).

Assays:
anti-BCMA CAR+ T cells [1] = experiment: Serial restimulation of anti-BCMA CAR+ T cells with irradiated MM1.S cells: expansion, cytokines, CD25; type: cell-based, human
Protocol: Anti-BCMA CAR+ T cells generated as described above were plated in triplicate at 1×10^5 cells/well on 96-well plates.
Every 3-4 days (start of each new round), CAR T cells were counted. […] 8 rounds of stimulation were carried out during a 31 day culture period. For some rounds, at re-plating, cells were assessed for phenotypic markers via flow cytometry.
Culture conditions were reset every 3-4 days. Replating was maintained for 28 days or until the cell count was <50,000 cells. Experiments were performed in triplicate in 3 donors.

OPM-2-luciferase tumor = experiment: OPM-2 orthotopic xenograft mouse model, Study 2 (concurrent or delayed lenalidomide); type: in vivo
Protocol: In a further study, NOD/Scid/gc^−/− (NSG) mice were injected (i.v.) with OPM-2-luciferase cells as described in Study 1 above and allowed to engraft for 14 days prior to CAR-T (or mock) cell; infusion (i.v.).
At 14 days after tumor cell injection (day 0), a subtherapeutic dose of CAR+ T cells (1×10^6 CAR-T cells (generated from two different donors)) or mock control cells was injected intravenously. Data are presented as mean±SEM. For in vivo survival, a Gehan-Breslow-Wilcoxon test was used to compare groups.
FIG. 10E depicts the results of tumor burden assessment through day 60, as analyzed by the bioluminescence […]. […] P values were obtained by likelihood ratio tests comparing the full model with the effect of interest against the model without the effect of interest.
Blood from the treated mice was collected for CAR-T pharmacokinetic analysis, and cells were stained with antibodies to exclude mouse-specific cells (H2-kd, TER119, and muCD45) and analyzed by flow cytometry. Cells were gated on CD45+CD3+CAR+ and the cells per microliter of blood was determined. For pharmacokinetic measurements, each time point was analyzed by one-way ANOVA and Tukey post-hoc test. FIGS. 10G and 10H show the flow cytometric analysis of mock control cells and CAR-T cells in the blood of the mice at days 8, 14, 22, and 28 following injection of the CAR-T cells from two donors.

anti-BCMA CAR+ T cells [2] = experiment: T cell markers and proliferation of anti-BCMA CAR+ T cells stimulated with BCMA-conjugated beads; type: cell-based, human
Protocol: B cell maturation antigen (BCMA) was conjugated to beads by covalently coupling a BCMA-Fc fusion polypeptide, containing soluble human BCMA fused at its C-terminus to an Fc region of IgG, to the surface of commercially available tosyl-activated magnetic beads (ThermoFisher, Waltham Mass.). The beads are superparamagnetic, non-porous, monodisperse, tosylactivated beads that covalently bind primary amino and sulfhydryl groups. Conjugation was performed using beads having a diameter of approximately 2.8 μm (designated M-280) or 4.5 μm (designated M-450).
Various concentrations of the BCMA-Fc fusion protein ranging from 5 μg to 200 μg were added to approximately 1 mL of tocylactivated beads (e.g. containing about 4×10^9 tocylactivated beads having a diameter of 2.8 μm or about 4×10^8 tocylactivated beads having a diameter of 4.5 μm). Covalent coupling was performed by overnight incubation at 37° C. in phosphate buffered solution (PBS) containing 0.1% human serum albumin (HSA). Beads were washed and resuspended in 1 mL PBS with 0.1% HSA. After conjugation, the bead concentration was determined using a Cellometer. In the examples below, the BCMA-conjugated beads used in various studies are referred to with reference either to the amount of BCMA-Fc antigen added per mL or the antigen concentration (μg/mL) during the conjugation, e.g. 5 μg or 5 μg/mL; 50 μg or 50 μg/mL; 200 μg or 200 μg/mL and so on.
Approximately 1.5×10^6 CAR+ T cells were added to wells of a 12-well plate and were incubated with beads from a 200 μg/ml BCMA-conjugated bead composition at a ratio of CAR+ T cell to BCMA-conjugated bead of 1:0.3, 1:1 or 1:3 (approximately 0.5×10^6, 1.5. 10^6, and 4.5×10^6 beads per well, respectively). As controls, 5 μg/mL anti-CD3 antibody was coated to wells (sub-optimal concentration for stimulation) or cells were seeded in the absence of any agent (no stimulation control). […]
In a further experiment, anti-BCMA CAR-T cell compositions produced substantially as described in Example 1 were plated in 96-well plates at a density of 5×10^5 cells per well. […]

anti-BCMA CAR T cells = experiment: Cytokine production of anti-BCMA CAR T cells on low, medium, high BCMA bead stimulation; type: cell-based, human
Protocol: In another study, recombinant human BCMA-conjugated beads were used to stimulate CAR T cells at various concentrations to titrate the magnitude of stimulation, either low (5 μg/mL), medium (50 μg/mL), and high (200 μg/mL) stimulation.

K562-CD19 cells = details: 1-5000 nM lenalidomide, E:T 2.5:1, about 120 hours
[3] = 0.1 μM lenalidomide, repeated stimulation
[4] = medium stimulation (50 μg BCMA beads), 24 hours, 1 μM lenalidomide

Compound: Nc1cccc2c1CN(C1CCC(=O)NC1=O)C2=O (stereo not drawn) [lenalidomide, 3-(4-amino-1-oxo-1,3-dihydro-2H-isoindol-2-yl)piperidine-2,6-dione]
- projected cell counts (anti-BCMA CAR+ T cells [1]; 0.1 μM lenalidomide, 3 donors, over 28 days): increased projected cell counts
- CAR T CD25 expression (MFI) (anti-BCMA CAR+ T cells [1]; [3]): significant increase in CAR T CD25 expression
- IL-2, IFN-γ, and TNF-α production in the media (anti-BCMA CAR+ T cells [1]; [3]): significant increase
- CAR-T expansion (anti-BCMA CAR+ T cells [1]; 0.1 μM lenalidomide, six donors): an increase or no change in CAR-T expansion
- expansion of anti-BCMA CAR T cells (anti-BCMA CAR+ T cells [1]; 0.01-10 μM lenalidomide, by day 14, vs no lenalidomide): increased expansion of anti-BCMA CAR T cells
- expansion of cells expressing two different human anti-BCMA CARs (anti-BCMA CAR+ T cells [1]; beginning between day 21 and day 28): increase expansion in both cell populations
- tumor growth and tumor burden (OPM-2-luciferase tumor; added to subtherapeutic CAR+ T cells from both donors, through day 60): slower tumor growth and reduced tumor burden
- CAR T counts in the peripheral blood (OPM-2-luciferase tumor; concurrent lenalidomide, after 7 days, not at later time points): increased CAR T counts in the peripheral blood
- tumor burden (OPM-2-luciferase tumor; concurrent lenalidomide, donor 1, vs vehicle with anti-BCMA CAR T): significant decrease in tumor burden
- survival (OPM-2-luciferase tumor; concurrent lenalidomide, donor 1 and donor 2): increased survival
- expression level of Ikaros (anti-BCMA CAR+ T cells [2]; 0.5 μM or 5 μM lenalidomide, 18 hours, all conditions): decreased
- proliferative capacity of T cells (CTV) (anti-BCMA CAR+ T cells [2]; 5 μM lenalidomide, 200 μg BCMA beads, 1:1, three days): increased the proliferative capacity of T cells
- surface expression of CD25 in CD4+ and CD8+ T cells (anti-BCMA CAR+ T cells [2]; 5 μM lenalidomide, BCMA-conjugated beads or anti-CD3): further increased the extent of surface expression of CD25
- percentage of IFN-γ+ and TNF-α+ intracellular staining (anti-BCMA CAR T cells; 0.1 or 1.0 μM lenalidomide, all stimulation levels, CD4+ and CD8+): increased the percentage of IFN-γ^+ and TNF-α^+ intracellular staining
- percentage of IL-2+ CAR+ T cells (anti-BCMA CAR T cells; 5-μg stimulation): increasing the percentage of IL-2^+ CAR^+ T cells
- percentage of IL-2+ CAR+ T cells (anti-BCMA CAR T cells; 50-μg and 200-μg stimulation): decreasing the percentage of IL-2^+ CAR^+ T cells
- CAR T cytokine production (anti-BCMA CAR T cells; absence of stimulation): had no effect on CAR T cytokine production
- increase in IL-2 concentration compared with vehicle control (anti-BCMA CAR T cells; [4]): 200%
- increase in TNF-α concentration compared with vehicle control (anti-BCMA CAR T cells; [4]): 200%
- IFN-γ concentration compared with vehicle control (anti-BCMA CAR T cells; medium stimulation, 24 hours): donor-dependent increases
- CAR-mediated cytolytic activity (K562-CD19 cells): reduced CAR-mediated cytolytic activity
